Measured values reported in paper PMC11392934 (Nature Communications, 2024).

Legend:
LacY = target: T1, LacY (Escherichia coli, UniProt P02920); experiment: inhibition of lactose-dependent NADPH production in MleP-LacY vesicles; format: biochemical; details: 100 µM D-lactose, pH 7, 30 °C; competitive; coupled read-out
T1 sequence (P02920 1-417): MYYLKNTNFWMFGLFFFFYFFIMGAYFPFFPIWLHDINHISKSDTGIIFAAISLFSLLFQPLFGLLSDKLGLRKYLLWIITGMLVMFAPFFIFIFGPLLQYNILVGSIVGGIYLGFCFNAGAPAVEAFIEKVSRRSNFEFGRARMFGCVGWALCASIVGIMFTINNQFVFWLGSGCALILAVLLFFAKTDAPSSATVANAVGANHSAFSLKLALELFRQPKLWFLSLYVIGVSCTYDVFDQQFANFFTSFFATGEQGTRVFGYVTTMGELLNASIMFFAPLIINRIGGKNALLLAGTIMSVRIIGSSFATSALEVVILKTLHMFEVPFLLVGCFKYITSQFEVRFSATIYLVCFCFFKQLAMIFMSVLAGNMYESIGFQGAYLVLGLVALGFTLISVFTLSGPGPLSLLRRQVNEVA

MleS = target: T2, MleS (Lactococcus lactis, UniProt Q48662); experiment: initial H+ consumption rate by pH microelectrode; format: biochemical; details: product inhibition; 5 mM L-malate, pH 7, 30 °C
T2 sequence (Q48662 1-540): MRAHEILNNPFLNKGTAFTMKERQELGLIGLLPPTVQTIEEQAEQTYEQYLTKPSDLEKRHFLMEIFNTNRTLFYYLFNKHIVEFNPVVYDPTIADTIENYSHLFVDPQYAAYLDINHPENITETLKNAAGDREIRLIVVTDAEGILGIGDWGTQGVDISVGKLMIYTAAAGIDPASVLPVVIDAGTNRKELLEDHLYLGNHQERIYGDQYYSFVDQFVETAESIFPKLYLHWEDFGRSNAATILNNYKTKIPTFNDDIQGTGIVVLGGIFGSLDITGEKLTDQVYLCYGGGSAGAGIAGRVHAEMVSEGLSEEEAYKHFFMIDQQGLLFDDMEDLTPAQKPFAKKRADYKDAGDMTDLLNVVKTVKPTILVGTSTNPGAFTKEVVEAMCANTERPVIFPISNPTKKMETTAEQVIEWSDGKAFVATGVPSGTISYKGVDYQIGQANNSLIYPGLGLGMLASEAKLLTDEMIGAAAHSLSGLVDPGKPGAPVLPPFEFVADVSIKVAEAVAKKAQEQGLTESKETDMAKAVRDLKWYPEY

Row | SMILES | effect at 20 mM (LacY) | % reduction of initial rate at 25 mM (MleS)
1 | OC[C@H]1O[C@@H](S[C@@H]2O[C@H](CO)[C@H](O)[C@H](O)[C@H]2O)[C@H](O)[C@@H](O)[C@H]1O [thiodigalactoside] | NADPH fluorescence is reduced in the presence non-hydrolysable substrates | –
2 | CS[C@@H]1O[C@H](CO)[C@H](O)[C@H](O)[C@H]1O [methyl-β-D-thiogalactoside] | methyl-β-D-thiogalactoside (TMG) and thiodigalactoside (TDG) | –
3 | C[C@H](O)C(=O)O [L-lactate] | – | 50%
